Results as given in patent US11046699B2, “Pyrazolo-pyrimidin-amino-cycloalkyl compounds and their therapeutic uses” (RAPT THERAPEUTICS, INC., priority 2018, dated 2021).

Biological target: GCN2 (Homo sapiens, UniProt Q9P2K8)
Test: GCN2 enzymatic endpoint assay: phosphorylation of GFP-eIF2α measured by TR-FRET (Lanthascreen)
Assay type: biochemical
Settings: GCN2 biochemical IC50; 4 nM GCN2, 2 μM ATP, 80 nM GFP-eIF2α, 90 min RT; read-out: GCN2 activity
In short: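 Endpoint GCN2 reaction with low ATP (2 μM) and 80 nM GFP-eIF2α, room temperature, 90 minutes. Detection mix with EDTA and Tb-labelled antibody; 520 nm/495 nm emission ratio reported.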

GCN2, sequence (Q9P2K8 whole entry): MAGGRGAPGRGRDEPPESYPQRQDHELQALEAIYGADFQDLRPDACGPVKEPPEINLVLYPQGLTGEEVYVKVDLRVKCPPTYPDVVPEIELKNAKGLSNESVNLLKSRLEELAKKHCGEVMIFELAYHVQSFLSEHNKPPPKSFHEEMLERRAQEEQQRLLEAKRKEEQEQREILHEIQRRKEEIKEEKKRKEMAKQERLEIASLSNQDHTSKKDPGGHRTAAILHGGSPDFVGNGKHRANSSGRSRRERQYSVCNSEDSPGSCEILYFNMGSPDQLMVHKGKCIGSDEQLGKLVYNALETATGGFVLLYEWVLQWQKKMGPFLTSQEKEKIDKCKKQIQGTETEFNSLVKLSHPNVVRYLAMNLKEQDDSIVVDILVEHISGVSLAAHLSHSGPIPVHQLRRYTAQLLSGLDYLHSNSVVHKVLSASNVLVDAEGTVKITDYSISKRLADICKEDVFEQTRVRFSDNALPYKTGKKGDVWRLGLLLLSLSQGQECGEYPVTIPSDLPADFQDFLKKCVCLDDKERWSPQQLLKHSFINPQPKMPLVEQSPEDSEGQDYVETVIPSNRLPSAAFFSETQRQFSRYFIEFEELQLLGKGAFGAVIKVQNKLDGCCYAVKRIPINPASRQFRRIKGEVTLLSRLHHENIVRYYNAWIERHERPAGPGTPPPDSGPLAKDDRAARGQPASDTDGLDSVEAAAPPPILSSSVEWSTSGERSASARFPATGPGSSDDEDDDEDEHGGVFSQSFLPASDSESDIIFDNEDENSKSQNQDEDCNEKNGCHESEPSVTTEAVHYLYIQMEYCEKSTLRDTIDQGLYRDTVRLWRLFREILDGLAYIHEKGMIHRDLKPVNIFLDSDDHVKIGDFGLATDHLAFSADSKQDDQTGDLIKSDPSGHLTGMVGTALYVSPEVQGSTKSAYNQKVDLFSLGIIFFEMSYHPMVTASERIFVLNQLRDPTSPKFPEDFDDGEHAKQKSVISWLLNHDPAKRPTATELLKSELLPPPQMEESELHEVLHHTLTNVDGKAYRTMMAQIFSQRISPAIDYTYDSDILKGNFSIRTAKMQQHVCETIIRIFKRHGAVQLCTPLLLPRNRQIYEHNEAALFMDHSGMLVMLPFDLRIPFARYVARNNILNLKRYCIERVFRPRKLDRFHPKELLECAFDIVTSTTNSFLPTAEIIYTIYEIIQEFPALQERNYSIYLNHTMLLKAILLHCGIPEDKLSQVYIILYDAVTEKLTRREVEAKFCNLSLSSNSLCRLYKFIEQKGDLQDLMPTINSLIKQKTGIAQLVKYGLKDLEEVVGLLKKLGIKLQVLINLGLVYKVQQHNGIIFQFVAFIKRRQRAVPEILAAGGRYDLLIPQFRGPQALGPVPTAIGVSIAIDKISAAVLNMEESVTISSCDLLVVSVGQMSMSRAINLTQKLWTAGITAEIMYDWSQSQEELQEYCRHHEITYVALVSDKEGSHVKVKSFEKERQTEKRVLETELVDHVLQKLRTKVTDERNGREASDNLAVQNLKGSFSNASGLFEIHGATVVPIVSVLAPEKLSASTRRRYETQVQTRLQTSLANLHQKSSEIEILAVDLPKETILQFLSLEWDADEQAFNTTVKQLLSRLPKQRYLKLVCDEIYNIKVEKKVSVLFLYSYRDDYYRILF

IC50 [nM] | SMILES
200 to 500 | CS(=O)(=O)N[C@@H]1CCC(Nc2ncc3c(Br)nn(-c4ccc5ncccc5c4)c3n2)C1 (mixture of isomers) [Example 15, N-(trans-3-((3-bromo-1-(quinolin-6-yl)-1H-pyrazolo[3,4-d]pyrimidin-6-yl)amino)cyclopentyl)methanesulfonamide]
200 to 500 | COCCNC(=O)[C@@H]1CC[C@@H](Nc2ncc3c(Br)nn(-c4ccc(-c5cccnc5)cc4)c3n2)C1 [Example 24, (1R,3R)-3-((3-bromo-1-(4-(pyridin-3-yl)phenyl)-1H-pyrazolo[3,4-d]pyrimidin-6-yl)amino)-N-(2-methoxyethyl)cyclopentane-1-carboxamide]

Same assay, conditions: tested as described in Example 77; compound and/or hydrochloride, dihydrochloride or trifluoroacetic acid salt; read-out: IC 50 Activity

IC50 [nM] | SMILES
25 to 200 | CN(C)CCNC(=O)[C@@H]1CC[C@@H](Nc2ncc3c(Br)nn(-c4ccc5ncccc5c4)c3n2)C1 [(1R,3R)-3-((3-bromo-1-(quinolin-6-yl)-1H-pyrazolo[3,4-d]pyrimidin-6-yl)amino)-N-(2-(dimethylamino)ethyl)cyclopentane-1-carboxamide]
25 to 200 | O=C(NC[C@H]1COCCN1)[C@@H]1CC[C@@H](Nc2ncc3c(Br)nn(-c4ccc5ncccc5c4)c3n2)C1 [(1R,3R)-3-((3-bromo-1-(quinolin-6-yl)-1H-pyrazolo[3,4-d]pyrimidin-6-yl)amino)-N-(((S)-morpholin-3-yl)methyl)cyclopentane-1-carboxamide]
25 to 200 | CNC(=O)[C@]1(C)CC[C@@H](Nc2ncc3c(Br)nn(-c4cc(CCN)c5nccnc5c4)c3n2)C1 [(1R,3R)-3-[[1-[8-(2-aminoethyl)quinoxalin-6-yl]-3-bromo-pyrazolo[3,4-d]pyrimidin-6-yl]amino]-N,1-dimethyl-cyclopentane-carboxamide]
25 to 200 | COCCNC(=O)[C@@H]1CC[C@@H](Nc2ncc3c(Br)nn(-c4cc(Cl)c5ncccc5c4)c3n2)C1 [(1R,3R)-3-((3-bromo-1-(8-chloroquinolin-6-yl)-1H-pyrazolo[3,4-d]pyrimidin-6-yl)amino)-N-(2-methoxyethyl)cyclopentane-1-carboxamide]
25 to 200 | CNC(=O)[C@]1(C)CC[C@@H](Nc2ncc3c(Br)nn(-c4ccc(-c5nnco5)cc4)c3n2)C1 [(1R,3R)-3-[[3-bromo-1-[4-(1,3,4-oxadiazol-2-yl)phenyl]pyrazolo[3,4-d]pyrimidin-6-yl]amino]-N,1-dimethyl-cyclopentane-carboxamide]
200 to 500 | CCCCNC(=O)[C@@H]1CC[C@@H](Nc2ncc3c(Br)nn(-c4cc(C#N)c5ncccc5c4)c3n2)C1 [(1R,3R)-3-((3-bromo-1-(8-cyanoquinolin-6-yl)-1H-pyrazolo[3,4-d]pyrimidin-6-yl)amino)-N-butylcyclopentane-1-carboxamide]
25 to 200 | N#Cc1cc(-n2nc(Br)c3cnc(N[C@@H]4CC[C@@H](C(=O)N5CCN(C(=O)C6CC6)CC5)C4)nc32)cc2cccnc12 [6-(3-bromo-6-(((1R,3R)-3-(4-(cyclopropanecarbonyl)piperazine-1-carbonyl)cyclopentyl)amino)-1H-pyrazolo [3,4-d]pyrimidin-1-yl)quinoline-8-carbonitrile]
25 to 200 | CNC(=O)C1(C)CC[C@@H](Nc2ncc3c(Br)nn(-c4ccc5[nH]c(=O)cc(C)c5c4)c3n2)C1 (stereo partly drawn) [(3R)-3-[[3-bromo-1-(4-methyl-2-oxo-1H-quinolin-6-yl)pyrazolo[3,4-d]pyrimidin-6-yl]amino]-N,1-dimethyl-cyclopentanecarboxamide]
25 to 200 | O=C(CO)N1CCN(C(=O)[C@@H]2CC[C@@H](Nc3ncc4c(Br)nn(-c5cc(F)c6ncccc6c5)c4n3)C2)CC1 [1-(4-((1R,3R)-3-((3-bromo-1-(8-fluoroquinolin-6-yl)-1H-pyrazolo[3,4-d]pyrimidin-6-yl)amino)cyclopentane-1-carbonyl)piperazin-1-yl)-2-hydroxyethan-1-one]
< 25 | C[C@@H]1C(=O)N(C)CCN1C(=O)[C@@H]1CC[C@@H](Nc2ncc3c(Br)nn(-c4cc(C#N)c5ncccc5c4)c3n2)C1 [6-(3-bromo-6-(((1R,3R)-3-((R)-2,4-dimethyl-3-oxopiperazine-1-carbonyl)cyclopentyl)amino)-1H-pyrazolo[3,4-d]pyrimidin-1-yl) quinoline-8-carbonitrile]
25 to 200 | CNC(=O)[C@]1(C)CC[C@@H](Nc2ncc3c(Br)nn(-c4cc(CCC#N)c5c(c4)CCC(=O)N5C)c3n2)C1 [(1R,3R)-3-[[3-bromo-1-[8-(2-cyanoethyl)-1-methyl-2-oxo-3,4-dihydroquinolin-6-yl]pyrazolo[3,4-d]pyrimidin-6-yl]amino]-N,1-dimethyl-cyclopentanecarboxamide]
25 to 200 | CCN(CC)C(=O)C1(C)CC[C@@H](Nc2ncc3c(Br)nn(-c4cc(F)c5ncccc5c4)c3n2)C1 (stereo partly drawn) [(3R)-3-[[3-bromo-1-(8-fluoro-6-quinolyl)pyrazolo[3,4-d]pyrimidin-6-yl]amino]-N,N-diethyl-1-methyl-cyclopentanecarboxamide]
25 to 200 | CNC(=O)[C@@]1(C)CC[C@@H](Nc2ncc3c(Br)nn(-c4cc(N5CCNCC5)c5ncccc5c4)c3n2)C1 [(1S,3R)-3-[[3-bromo-1-(8-piperazin-1-yl-6-quinolyl)pyrazolo[3,4-d]pyrimidin-6-yl]amino]-N,1-dimethyl-cyclopentane-carboxamide]
25 to 200 | CNC(=O)[C@]1(CC(F)F)CC[C@@H](Nc2ncc3c(Br)nn(-c4ccc(-c5cccnc5)c(C#N)c4)c3n2)C1 [(1R,3R)-3-[[3-bromo-1-[3-cyano-4-(3-pyridyl)phenyl]pyrazolo[3,4-d]pyrimidin-6-yl]amino]-1-(2,2-difluoroethyl)-N-methyl-cyclopentanecarboxamide]
25 to 200 | CNC(=O)[C@]1(C)CC[C@@H](Nc2ncc3c(Br)nn(-c4ccc(C5=NOCC5)cc4)c3n2)C1 [(1R,3R)-3-[[3-bromo-1-[4-(4,5-dihydro-isoxazol-3-yl)phenyl]pyrazolo[3,4-d]pyrimidin-6-yl]amino]-N,1-dimethyl-cyclopentanecarboxamide]
< 25 | CNC(=O)[C@]1(CC(F)(F)F)CC[C@@H](Nc2ncc3c(Br)nn(-c4cc(F)c5ncccc5c4)c3n2)C1 [(1R,3R)-3-[[3-bromo-1-(8-fluoro-6-quinolyl)pyrazolo[3,4-d]pyrimidin-6-yl]amino]-N-methyl-1-(2,2,2-trifluoroethyl)cyclopentane-carboxamide]
25 to 200 | CNC(=O)[C@]1(C)CC[C@@H](Nc2ncc3c(Br)nn(-c4cc(CNCCC#N)cc(OC(F)(F)F)c4)c3n2)C1 [(1R,3R)-3-[[3-bromo-1-[3-[(2-cyanoethyl-amino)methyl]-5-(trifluoromethoxy)phenyl]pyrazolo[3,4-d]pyrimidin-6-yl]amino]-N,1-dimethyl-cyclopentane-carboxamide]
25 to 200 | CNC(=O)[C@]1(CCC(F)(F)F)CC[C@@H](Nc2ncc3c(Br)nn(-c4cc(F)c5ncccc5c4)c3n2)C1 [(1S,3R)-3-[[3-bromo-1-(8-fluoro-6-quinolyl)pyrazolo[3,4-d]pyrimidin-6-yl]amino]-N-methyl-1-(3,3,3-trifluoropropyl)cyclopentane-carboxamide]
25 to 200 | O=C1CN(C(=O)[C@@H]2CC[C@@H](Nc3ncc4c(Br)nn(-c5cc(C(F)F)c6ncccc6c5)c4n3)C2)CCN1 [4-((1R,3R)-3-((3-bromo-1-(8-(difluoromethyl)quinolin-6-yl)-1H-pyrazolo[3,4-d]pyrimidin-6-yl)amino)cyclopentane-1-carbonyl)piperazin-2-one]
25 to 200 | O=C([C@@H]1CC[C@@H](Nc2ncc3c(Br)nn(-c4ccc5ncccc5c4)c3n2)C1)N1CCNCC1 [((1R,3R)-3-((3-bromo-1-(quinolin-6-yl)-1H-pyrazolo[3,4-d]pyrimidin-6-yl)amino)cyclo-pentyl)(piperazin-1-yl)methanone]
< 25 | CC1(C(=O)NC2(C#N)CC2)CC[C@@H](Nc2ncc3c(Br)nn(-c4cc(F)c5ncccc5c4)c3n2)C1 (stereo partly drawn) [(3R)-3-[[3-bromo-1-(8-fluoro-6-quinolyl)pyrazolo[3,4-d]pyrimidin-6-yl]amino]-N-(1-cyanocyclopropyl)-1-methyl-cyclopentane-carboxamide]
25 to 200 | COC[C@H](C)NC(=O)[C@@H]1CC[C@@H](Nc2ncc3c(Br)nn(-c4ccc5ncccc5c4)c3n2)C1 [(1R,3R)-3-((3-bromo-1-(quinolin-6-yl)-1H-pyrazolo[3,4-d]pyrimidin-6-yl)amino)-N-((S)-1-methoxypropan-2-yl)cyclopentane-1-carboxamide]
200 to 500 | O=C(NC1CCS(=O)(=O)CC1)[C@@H]1CC[C@@H](Nc2ncc3c(Br)nn(-c4ccc(-c5cccnc5)cc4)c3n2)C1
25 to 200 | CNC(=O)[C@]1(C)CC[C@@H](Nc2ncc3c(Br)nn(-c4ccc5c(c4)OCC(=O)N5CC#N)c3n2)C1 [(1R,3R)-3-[[3-bromo-1-[4-(cyanomethyl)-3-oxo-1,4-benzoxazin-7-yl]pyrazolo[3,4-d]pyrimidin-6-yl]amino]-N,1-dimethyl-cyclopentanecarboxamide]
25 to 200 | Cc1ccc2cc(-n3nc(Br)c4cnc(N[C@@H]5CC[C@@H](P(C)(C)=O)C5)nc43)cc(CCO)c2n1 [2-[6-[3-bromo-6-[[(1R,3R)-3-dimethyl-phosphorylcyclopentyl]amino]pyrazolo [3,4-d]pyrimidin-1-yl]-2-methyl-8-quinolyl]ethanol]
500 to 1000 | COC[C@@H](C)NC(=O)[C@@H]1CCC[C@@H](Nc2ncc3c(Br)nn(-c4ccc5ncccc5c4)c3n2)C1 [(1R,3R)-3-((3-bromo-1-(quinolin-6-yl)-1H-pyrazolo[3,4-d]pyrimidin-6-yl)amino)-N-((R)-1-methoxypropan-2-yl)cyclohexane-1-carboxamide]
25 to 200 | CNC(=O)[C@]1(C)CC[C@@H](Nc2ncc3c(Br)nn(-c4cccc(NC5COC5)c4)c3n2)C1 [(1R,3R)-3-[[3-bromo-1-[3-(oxetan-3-ylamino)phenyl]pyrazolo[3,4-d]pyrimidin-6-yl]amino]-N,1-dimethyl-cyclopentanecarboxamide]

SMILES | IC50 [nM]
CNC(=O)[C@]1(C)CC[C@@H](Nc2ncc3c(Br)nn(-c4ccc5nc(NC)ncc5c4)c3n2)C1 | 25 to 200
CNC(=O)C1(CC#N)CC[C@@H](Nc2ncc3c(Br)nn(-c4ccc(-c5nnc(C)s5)cc4)c3n2)C1 (stereo partly shown) | 25 to 200
